Experimental data: ChEMBL document CHEMBL1123842, “Structural modification study of mitoxantrone (DHAQ). Chloro-substituted mono- and bis[(aminoalkyl)amino]anthraquinones” (1987)

What was measured:
P388 [1] = assay: In vivo antineoplastic activity was determined in BDF1 mice implanted with P388 leukemia and activity is expressed as T/C at 80 mg/kg ip dose (Q1dx9 treatment); conditions: route intraperitoneal
P388 [2] = assay: In vivo antineoplastic activity was determined in BDF1 mice implanted with P388 leukemia and activity is expressed as T/C at 160 mg/kg ip dose (Q1dx9 treatment); conditions: route intraperitoneal
P388 [3] = assay: Antineoplastic activity was determined in BDF1 mice in vivo implanted with P388 leukemia and t/c was determined at 40 mg/kg ip dose (Q4dx9 treatment); type: functional, Mus musculus; conditions: route intraperitoneal
P388 [4] = assay: In vivo antineoplastic activity was determined in BDF1 mice implanted with P388 leukemia and activity is expressed as T/C at 0.12 mg/kg; type: functional, Mus musculus
P388 [5] = assay: In vivo antineoplastic activity was determined in BDF1 mice implanted with P388 leukemia and activity is expressed as T/C at 0.06 mg/kg; type: functional, Mus musculus
P388 [6] = assay: In vivo antineoplastic activity was determined in BDF1 mice implanted with P388 leukemia and activity is expressed as T/C at 0.25 mg/kg; type: functional, Mus musculus
P388 [7] = assay: In vivo antineoplastic activity was determined in BDF1 mice implanted with P388 leukemia and activity is expressed as T/C at 2 mg/kg; type: functional, Mus musculus
P388 [8] = assay: In vivo antineoplastic activity was determined in BDF1 mice implanted with P388 leukemia and activity is expressed as T/C at 1 mg/kg; type: functional, Mus musculus
P388 [9] = assay: In vivo antineoplastic activity was determined in BDF1 mice implanted with P388 leukemia and activity is expressed as T/C at 0.5 mg/kg; type: functional, Mus musculus
P388 [10] = assay: In vivo antineoplastic activity was determined in BDF1 mice implanted with P388 leukemia and activity is expressed as T/C at 200 mg/kg ip dose (Q1dx5 treatment); conditions: route intraperitoneal
L1210 = assay: In vitro cytotoxicity against L1210 leukemia cells was determined; type: functional; conditions: Mus musculus
P388 [11] = assay: In vivo antineoplastic activity was determined in BDF1 mice implanted with P388 leukemia and activity is expressed as T/C at 100 mg/kg ip dose (Q4dx5 treatment); type: functional, Mus musculus; conditions: route intraperitoneal
B16 [12] = assay: In vivo antineoplastic activity was determined in BDF1 mice implanted with B16 melanoma and activity expressed as T/C at 50 mg/kg ip dose (Q1Dx9 treatment); type: functional, Mus musculus; conditions: route intraperitoneal
[13] = system: Colon adenocarcinoma cell line; assay: In vitro cytotoxicity against Human colon adenocarcinoma cells was determined; type: functional
P388 [14] = assay: In vivo antineoplastic activity was determined in BDF1 mice implanted with P388 leukemia and activity is expressed as T/C at 100 mg/kg ip dose (Q4dx2 treatment); type: functional, Mus musculus; conditions: route intraperitoneal
B16 [15] = assay: In vivo antineoplastic activity was determined in BDF1 mice implanted with B16 melanoma and activity expressed as T/C at 6.25 mg/kg ip dose (Q1Dx9 treatment); type: functional, Mus musculus; conditions: route intraperitoneal
P388 [16] = assay: In vivo antineoplastic activity was determined in BDF1 mice implanted with P388 leukemia and activity is expressed as T/C at 50 mg/kg ip dose (Q4dx2 treatment); type: functional, Mus musculus; conditions: route intraperitoneal
B16 [17] = assay: In vivo antineoplastic activity was determined in BDF1 mice implanted with B16 melanoma and activity expressed as T/C at 12.5 mg/kg ip dose (Q1Dx9 treatment); type: functional, Mus musculus; conditions: route intraperitoneal
B16 [18] = assay: In vivo antineoplastic activity was determined in BDF1 mice implanted with B16 melanoma and activity expressed as T/C at 25 mg/kg ip dose (Q1Dx9 treatment); type: functional, Mus musculus; conditions: route intraperitoneal
P388 [19] = assay: In vivo antineoplastic activity was determined in BDF1 mice implanted with P388 leukemia and activity is expressed as T/C at 200 mg/kg ip dose (Q4dx2 treatment); type: functional, Mus musculus; conditions: route intraperitoneal
P388 [20] = assay: In vivo antineoplastic activity was determined in BDF1 mice implanted with P388 leukemia and activity is expressed as T/C at 60 mg/kg ip dose (Q1dx5 treatment); conditions: route intraperitoneal
P388 [21] = assay: In vivo antineoplastic activity was determined in BDF1 mice implanted with P388 leukemia and activity is expressed as T/C at 120 mg/kg ip dose (Q1dx5 treatment); conditions: route intraperitoneal
P388 [22] = assay: In vivo antineoplastic activity was determined in BDF1 mice implanted with P388 leukemia and activity is expressed as T/C at 30 mg/kg ip dose (Q1dx5 treatment); conditions: route intraperitoneal
P388 [23] = assay: In vivo antineoplastic activity was determined in BDF1 mice implanted with P388 leukemia and activity is expressed as T/C at 400 mg/kg ip dose (Q4dx2 treatment); type: functional, Mus musculus; conditions: route intraperitoneal
P388 [24] = assay: In vivo antineoplastic activity was determined in BDF1 mice implanted with P388 leukemia and activity is expressed as T/C at 10 mg/kg ip dose (Q4dx2 treatment); type: functional, Mus musculus; conditions: route intraperitoneal
P388 [25] = assay: In vivo antineoplastic activity was determined in BDF1 mice implanted with P388 leukemia and activity is expressed as T/C at 80 mg/kg ip dose (Q4dx2 treatment); type: functional, Mus musculus; conditions: route intraperitoneal
P388 [26] = assay: In vivo antineoplastic activity was determined in BDF1 mice implanted with P388 leukemia and activity is expressed as T/C at 160 mg/kg ip dose (Q4dx2 treatment); type: functional, Mus musculus; conditions: route intraperitoneal
P388 [27] = assay: In vivo antineoplastic activity was determined in BDF1 mice implanted with P388 leukemia and activity is expressed as T/C at 40 mg/kg ip dose (Q4dx2 treatment); type: functional, Mus musculus; conditions: route intraperitoneal
P388 [28] = assay: In vivo antineoplastic activity was determined in BDF1 mice implanted with P388 leukemia and activity is expressed as T/C at 20 mg/kg ip dose (Q4dx2 treatment); type: functional, Mus musculus; conditions: route intraperitoneal
P388 [29] = assay: In vivo antineoplastic activity was determined in BDF1 mice implanted with P388 leukemia and activity is expressed as T/C at 120 mg/kg ip dose (Q1dx5 treatment); conditions: route intraperitoneal; remark: listed apart in the source
P388 [30] = assay: In vivo antineoplastic activity was determined in BDF1 mice implanted with P388 leukemia and activity is expressed as T/C at 50 mg/kg ip dose (Q1dx5 treatment); conditions: route intraperitoneal
P388 [31] = assay: In vivo antineoplastic activity was determined in BDF1 mice implanted with P388 leukemia and activity is expressed as T/C at 100 mg/kg ip dose (Q1dx5 treatment); conditions: route intraperitoneal
P388 [32] = assay: In vivo antineoplastic activity was determined in BDF1 mice implanted with P388 leukemia and activity is expressed as T/C at 25 mg/kg ip dose (Q1dx5 treatment); conditions: route intraperitoneal
P388 [33] = assay: In vivo antineoplastic activity was determined in BDF1 mice implanted with P388 leukemia and activity is expressed as T/C at 12.5 mg/kg ip dose (Q4dx5 treatment); type: functional, Mus musculus; conditions: route intraperitoneal
B16 [34] = assay: In vivo antineoplastic activity was determined in BDF1 mice implanted with B16 melanoma and activity expressed as T/C at 20 mg/kg ip dose (Q1Dx9 treatment); type: functional, Mus musculus; conditions: route intraperitoneal
B16 [35] = assay: In vivo antineoplastic activity was determined in BDF1 mice implanted with B16 melanoma and activity expressed as T/C at 100 mg/kg ip dose (Q1Dx9 treatment); type: functional, Mus musculus; conditions: route intraperitoneal
B16 [36] = assay: In vivo antineoplastic activity was determined in BDF1 mice implanted with B16 melanoma and activity expressed as T/C at 80 mg/kg ip dose (Q1Dx9 treatment); type: functional, Mus musculus; conditions: route intraperitoneal
P388 [37] = assay: In vivo antineoplastic activity was determined in BDF1 mice implanted with P388 leukemia and activity is expressed as T/C at 6.25 mg/kg ip dose (Q4dx5 treatment); type: functional, Mus musculus; conditions: route intraperitoneal
B16 [38] = assay: In vivo antineoplastic activity was determined in BDF1 mice implanted with B16 melanoma and activity expressed as T/C at 40 mg/kg ip dose (Q1Dx9 treatment); type: functional, Mus musculus; conditions: route intraperitoneal
B16 [39] = assay: In vivo antineoplastic activity was determined in BDF1 mice implanted with B16 melanoma and activity expressed as T/C at 160 mg/kg ip dose (Q1Dx9 treatment); type: functional, Mus musculus; conditions: route intraperitoneal

## O=C1c2cccc(Cl)c2C(=O)c2c(NCCNCCO)cccc21
P388 [1]
  T/C: 124
P388 [2]
  T/C: 120
P388 [3]
  T/C: 116

## O=C1c2c(O)ccc(O)c2C(=O)c2c(NCCNCCO)ccc(NCCNCCO)c21 [MITOXANTRONE]
P388 [4]
  T/C: 200
P388 [5]
  T/C: 208
P388 [6]
  T/C: 280
P388 [7]
  T/C: 280
P388 [8]
  T/C: 277
P388 [9]
  T/C: 299

## CN(C)CCNc1ccc(Cl)c2c1C(=O)c1c(NCCN(C)C)ccc(Cl)c1C2=O
P388 [10]
  T/C: 119
L1210
  CC50: 1670 nM
P388 [11]
  T/C: 113

## CN(C)CCNc1ccc(NCCN(C)C)c2c1C(=O)c1c(Cl)ccc(Cl)c1C2=O
B16 [12]
  T/C: 133
[13]
  CC50: 130 nM
P388 [14]
  T/C: 120
B16 [15]
  T/C: 117
P388 [16]
  T/C: 110
L1210
  CC50: 117 nM
B16 [17]
  T/C value: 143
B16 [18]
  T/C: 141
P388 [19]
  T/C: 117

## CN(C)CCNc1ccc(Cl)c2c1C(=O)c1c(O)ccc(O)c1C2=O
P388 [20]
  T/C: 137
P388 [21]
  T/C: 169
L1210
  CC50: 36.2 nM
P388 [22]
  T/C: 121

## CN(C)CCNc1ccc(Cl)c2c1C(=O)c1c(O)ccc(Cl)c1C2=O
L1210
  CC50: 176 nM
P388 [23]
  T/C: 125
P388 [19]
  T/C: 113

## O=C1c2c(O)ccc(O)c2C(=O)c2c(NCCNCCO)ccc(Cl)c21
P388 [24]
  T/C: 113
P388 [25]
  T/C: 154
P388 [26]
  T/C: 184
L1210
  CC50: 398 nM
P388 [27]
  T/C: 130
P388 [28]
  T/C: 125

## O=C1c2c(O)ccc(Cl)c2C(=O)c2c(NCCNCCO)ccc(Cl)c21
P388 [23]
  T/C: 111
P388 [19]
  T/C: 96

## CN(C)CCNc1ccc(Cl)c2c1C(=O)c1c(Cl)ccc(NCCN(C)C)c1C2=O
[13]
  CC50: 229 nM
P388 [14]
  T/C: 115
L1210
  CC50: 385 nM
P388 [23]
  T/C: 123
P388 [19]
  T/C: 128

## CN(C)CCCNc1ccc(Cl)c2c1C(=O)c1c(O)ccc(O)c1C2=O
P388 [20]
  T/C: 123
P388 [21]
  T/C: 129
L1210
  CC50: 265 nM
P388 [22]
  T/C: 109

## CN(C)CCNc1ccc(O)c2c1C(=O)c1c(Cl)ccc(Cl)c1C2=O
[13]
  CC50: 522 nM
P388 [20]
  T/C: 150
P388 [29]
  T/C: 176
L1210
  CC50: 86.9 nM
P388 [22]
  T/C: 136

## O=C1c2cccc(NCCNCCO)c2C(=O)c2cccc(Cl)c21
[13]
  CC50: 1400 nM
P388 [14]
  T/C: 100
L1210
  CC50: 1170 nM
P388 [19]
  T/C: 105

## O=C1c2c(O)ccc(NCCNCCO)c2C(=O)c2c(Cl)ccc(Cl)c21
B16 [12]
  T/C: 252
P388 [30]
  T/C: 180
B16 [15]
  T/C: 166
P388 [31]
  T/C: 219
P388 [32]
  T/C: 203
L1210
  CC50: 86.6 nM
B16 [17]
  T/C: 172
P388 [33]
  T/C: 146
B16 [34]
  T/C: 224
B16 [35]
  T/C: 270
B16 [36]
  T/C: 271
P388 [37]
  T/C: 154
B16 [18]
  T/C: 199
B16 [38]
  T/C: 231
B16 [39]
  T/C: 326

## CN(C)CCNc1ccc(Cl)c2c1C(=O)c1c(Cl)ccc(O)c1C2=O
P388 [25]
  T/C: 117
L1210
  CC50: 1130 nM
P388 [27]
  T/C: 103
